Reference: patent US8658568B2, “6-amino-2-substituted-5-vinylsilylpyrimidine-4-carboxylic acids and esters and 4-amino-6-substituted-3-vinylsilylpyridine-2-carboxylic acids and esters as herbicides” (Dow AgroSciences, LLC., priority 2011, dated 2014)

Legend:
[1] = test system: EPHHL = wild poinsettia (Euphorbia heterophylla); assay: Postemergence herbicidal activity, wild poinsettia; type: in vivo; conditions: post-emergence, 336 h, post-emergent, rate 140 g ai/ha, visual score after 14 days (0 no injury, 100 complete kill), read-out: % Growth Reduction EPHHL
Procedure: (§1) Evaluation of Postemergence Herbicidal Activity
(§2) Seeds or nutlets of the desired test plant species were planted in Sun Gro MetroMix® 306 planting mixture, which typically has a pH of 6.0 to 6.8 and an organic matter content of about 30 percent, in plastic pots with a surface area of 64 square centimeters. When required to ensure good germination and healthy plants, a fungicide treatment and/or other chemical or physical treatment was applied. The plants were grown for 7-21 days in a greenhouse with an approximate 15 hour photoperiod which was maintained at about 23-29° C. during the day and 22-28° C. during the night. Nutrients and water were added on a regular basis and supplemental lighting was provided with overhead metal halide 1000-Watt lamps as necessary. The plants were employed for testing when they reached the first or second true leaf stage.
(§3) A weighed amount, determined by the highest rate to be tested, of each test compound was placed in a 25 mL glass vial and was dissolved in 4 mL of a 97:3 v/v (volume/volume) mixture of acetone and dimethyl sulfoxide (DMSO) to obtain concentrated stock solutions. […] The concentrated stock solutions obtained were diluted with 20 mL of an aqueous mixture containing acetone, water, isopropyl alcohol, DMSO, Atplus 411F crop oil concentrate, and Triton® X-155 surfactant in a 48.5:39:10:1.5:1.0:0.02 v/v ratio to obtain spray solutions containing the highest application rates. Additional application rates were obtained by serial dilution of 12 mL of the high rate solution into a solution containing 2 mL of 97:3 (v/v) mixture of acetone and dimethyl sulfoxide (DMSO) and 10 mL of an aqueous mixture containing acetone, water, isopropyl alcohol, DMSO, Atplus 411F crop oil concentrate, and Triton X-155 surfactant in a 48.5:39:10:1.5:1.0:0.02 (v/v) ratio to obtain 1/2 ×, 1/4 ×, 1/8× and 1/16× rates of the high rate. Compound requirements are based upon a 12 mL application volume at a rate of 187 L/ha. Formulated compounds were applied to the plant material with an overhead Mandel track sprayer equipped with a 8002E nozzles calibrated to deliver 187 L/ha over an application area of 0.503 square meters at a spray height of 18 inches (43 cm) above the average plant canopy height. Control plants were sprayed in the same manner with the solvent blank.
(§4) The treated plants and control plants were placed in a greenhouse as described above and watered by sub-irrigation to prevent wash-off of the test compounds. After 14 days, the condition of the test plants as compared with that of the untreated plants was determined visually and scored on a scale of 0 to 100 percent where 0 corresponds to no injury and 100 corresponds to complete kill
(§5) By applying the well-accepted probit analysis as described by J. Berkson in Journal of the […], 48, 565 (1953) and by D. Finney in “Probit Analysis” Cambridge University Press (1952), the above data can be used to calculate GR50 and GR80 values, which are defined as growth reduction factors that correspond to the effective dose of herbicide required to kill or control 50 percent or 80 percent, respectively, of a target plant.

[2] = test system: CHEAL = lambsquarters (Chenopodium album); assay: Postemergence herbicidal activity, lambsquarters; type: in vivo; conditions: post-emergence, 336 h, post-emergent, rate 140 g ai/ha, visual score after 14 days (0 no injury, 100 complete kill), read-out: % Growth Reduction CHEAL
Procedure: as §1, §2, §3, §4, §5

[3] = test system: ECHCG = barnyardgrass (Echinochloa crus-galli); assay: Postemergence herbicidal activity, barnyardgrass; type: in vivo; conditions: post-emergence, 336 h, post-emergent, rate 140 g ai/ha, visual score after 14 days (0 no injury, 100 complete kill), read-out: % Growth Reduction ECHCG
Procedure: as §1, §2, §3, §4, §5

[4] = test system: HELAN = sunflower (Helianthus annuus); assay: Postemergence herbicidal activity, sunflower; type: in vivo; conditions: post-emergence, 336 h, post-emergent, rate 140 g ai/ha, visual score after 14 days (0 no injury, 100 complete kill), read-out: % Growth Reduction HELAN
Procedure: as §1, §2, §3, §4, §5

[5] = test system: ABUTH = velvetleaf (Abutilon theophrasti); assay: Postemergence herbicidal activity, velvetleaf; type: in vivo; conditions: post-emergence, 336 h, post-emergent, rate 140 g ai/ha, visual score after 14 days (0 no injury, 100 complete kill), read-out: % Growth Reduction ABUTH
Procedure: as §1, §2, §3, §4, §5

[6] = test system: AMARE = redroot pigweed (Amaranthus retroflexus); assay: Postemergence herbicidal activity, redroot pigweed; type: in vivo; conditions: post-emergence, 336 h, post-emergent, rate 140 g ai/ha, visual score after 14 days (0 no injury, 100 complete kill), read-out: % Growth Reduction AMARE
Procedure: as §1, §2, §3, §4, §5

[7] = test system: IPOHE = ivyleaf morningglory (Ipomoea hederacea); assay: Postemergence herbicidal activity, ivyleaf morningglory; type: in vivo; conditions: post-emergence, 336 h, post-emergent, rate 140 g ai/ha, visual score after 14 days (0 no injury, 100 complete kill), read-out: % Growth Reduction IPOHE
Procedure: as §1, §2, §3, §4, §5

Row | SMILES | pest or weed control at 140 g/ha [1] [%] | pest or weed control at 140 g/ha [2] [%] | pest or weed control at 140 g/ha [3] [%] | pest or weed control at 140 g/ha [4] [%] | pest or weed control at 140 g/ha [5] [%] | pest or weed control at 140 g/ha [6] [%] | pest or weed control at 140 g/ha [7] [%] | melting point [°C]
1 | COc1c(Cl)ccc(-c2nc(N)c(/C=C/[Si](C)(C)C)c(C(=O)O)n2)c1F [Compound 6, (E)-6-amino-2-(4-chloro-2-fluoro-3-methoxyphenyl)-5-(2-(trimethylsilyl)vinyl)pyrimidine-4-carboxylicacid] | 100 | 100 | 100 | 100 | 100 | 100 | 95 | 108 to 110
2 | COC(=O)c1nc(-c2ccc(Cl)cc2)c(F)c(N)c1/C=C/[Si](C)(C)C [Compound 12, (E)-Methyl 4-amino-6-(4-chlorophenyl)-5-fluoro-3-(2-(trimethylsilyl)vinyl)picolinate] | 80 | 100 | 0 | 90 | 90 | 75 | 0 | 113 to 115
